Data from patent US20260022142A1, “MACROCYCLIC IMMUNOMODULATORS” (Bristol-Myers Squibb Company, priority 2022, published 2026).
pIC50: −log10 of the molar value. Bridge positions count the residues as written; N and C are the ends. Square brackets hold non-standard residues; d marks the D form. Peptide text beside a SMILES is read from it. * marks the point of attachment. ξ: configuration not given here. Phe(3-CF3) = N[C@@H](Cc1cccc(C(F)(F)F)c1)C(=O)O; Bip = N[C@@H](Cc1ccc(-c2ccccc2)cc1)C(=O)O; Phe(3-OMe) = COc1cccc(C[C@H](N)C(=O)O)c1; Phe(3-Me) = Cc1cccc(C[C@H](N)C(=O)O)c1; Abu(3S-NH2) = C[C@H](N)[C@H](N)C(=O)O; Val(3-OH) = CC(C)(O)[C@H](N)C(=O)O; 4Pal = N[C@@H](Cc1ccncc1)C(=O)O; Cha = N[C@@H](CC1CCCCC1)C(=O)O; Cit = NC(=O)NCCC[C@H](N)C(=O)O; Thr(3ξ) = CC(O)[C@H](N)C(=O)O; Phg = N[C@H](C(=O)O)c1ccccc1; Carboxymethyl = O=C(O)C*; Orn = NCCC[C@H](N)C(=O)O; Aun = NCCCCCCCCCCC(=O)O; Dab = NCC[C@H](N)C(=O)O; Dap = NC[C@H](N)C(=O)O; AEEA = NCCOCCOCC(=O)O

target: T1, PD-1/PD-L1 interaction (PE-labeled human PD-L1-Ig binding to Jurkat cell line over-expressing human PD-1) (Homo sapiens, UniProt Q15116); test: Jurkat-PD-1 Cell Binding High-Content Screening Assay (CBA); assay type: cell-based; details: Jurkat cell line over-expressing human PD-1; PE-labeled PD-L1-Ig 20 nM final; read-out: Jurkat hPD1-PDL1 IC50
T1 construct: expressed in transfected cells; host or cells: Jurkat
Procedure, shortened: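 Jurkat-hPD-1 cells, DMEM/10% FCS; cpd 2 h 37° C; PE-PD-L1-Ig 20 nM final, 1 h; 4% PFA fix + Hoechst 33342, 3× dPBS wash; high-content imaging read-out.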

T1 sequence (Q15116 25-288): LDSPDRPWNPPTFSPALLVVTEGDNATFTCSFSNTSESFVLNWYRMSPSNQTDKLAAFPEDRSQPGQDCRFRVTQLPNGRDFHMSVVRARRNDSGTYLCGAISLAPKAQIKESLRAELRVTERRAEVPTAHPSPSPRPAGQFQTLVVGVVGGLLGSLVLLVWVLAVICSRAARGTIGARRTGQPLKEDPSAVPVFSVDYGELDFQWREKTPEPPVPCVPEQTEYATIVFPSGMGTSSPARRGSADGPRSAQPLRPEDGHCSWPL

Row | pIC50 | SMILES
1 | 7.85 | COc1cccc(C[C@@H]2NC(=O)[C@H](Cc3cccc(C)c3)NC(=O)[C@H](CC(=O)O)NC(=O)[C@H](Cc3ccc(OCC(=O)O)cc3)NC(=O)[C@H](Cc3ccncc3)NC(=O)CSC[C@@H](C(=O)N[C@@H](CCN)C(=O)NCCCCCCCCCCC(=O)O)NC(=O)[C@H](CO)NC(=O)[C@H](C(C)(C)O)NC(=O)[C@H](CC3CCCCC3)NC(=O)[C@H](CCN)NC(=O)[C@@H](CC(C)C)NC(=O)[C@H](CCCN)NC(=O)[C@H](Cc3ccc(OCC(=O)O)cc3)NC(=O)[C@H](Cc3ccc(-c4ccccc4)cc3)NC2=O)c1 [Compound 2186] ({CH2CO}-[4Pal]Y(Carboxymethyl)D[Phe(3-Me)][Phe(3-OMe)][Bip]Y(Carboxymethyl)[Orn][dL][Dab][Cha][Val(3-OH)]SC[Dab][Aun]-OH; thioether N-14)
2 | 8.17 | CC(C)C[C@H]1NC(=O)[C@H](CCCN)NC(=O)[C@H](Cc2ccc(OCC(=O)O)cc2)NC(=O)[C@H](Cc2ccc(-c3ccccc3)cc2)NC(=O)[C@H](Cc2ccc(OCC(=O)O)cc2)NC(=O)[C@H](Cc2cccc(C(F)(F)F)c2)NC(=O)[C@H](CC(=O)O)NC(=O)[C@H](Cc2ccc(OCC(=O)O)cc2)NC(=O)[C@H](CCN)NC(=O)CSC[C@@H](C(=O)N[C@@H](CCN)C(=O)NCCCCCCCCCCC(=O)O)NC(=O)[C@H](C(C)O)NC(=O)[C@H](C(C)C)NC(=O)[C@H](CC2CCCCC2)NC(=O)[C@H](CCN)NC1=O (stereo partly drawn) [Compound 3820] ({CH2CO}-[Dab]Y(Carboxymethyl)D[Phe(3-CF3)]Y(Carboxymethyl)[Bip]Y(Carboxymethyl)[Orn][dL][Dab][Cha]V[Thr(3ξ)]C[Dab][Aun]-OH; thioether N-14)
3 | 6.81 | Cc1cccc(C[C@@H]2NC(=O)[C@H](CC(=O)O)NC(=O)[C@H](Cc3ccc(OCC(=O)O)cc3)NC(=O)[C@H](CN)NC(=O)CSC[C@@H](C(=O)N[C@@H](CCN)C(=O)NCCCCCCCCCCC(=O)O)NC(=O)[C@H](c3ccccc3)NC(=O)[C@H](C(C)C)NC(=O)[C@H](CC(C)C)NC(=O)[C@H](CCN)NC(=O)[C@@H](CC(C)C)NC(=O)[C@H](CCCN)NC(=O)[C@H](Cc3ccc(O)cc3)NC(=O)[C@H](Cc3ccc(-c4ccccc4)cc3)NC(=O)[C@H](C(C)C)NC2=O)c1 [Compound 2761] ({CH2CO}-[Dap]Y(Carboxymethyl)D[Phe(3-Me)]V[Bip]Y[Orn][dL][Dab]LV[Phg]C[Dab][Aun]-OH; thioether N-14)
4 | 7.13 | CC(C)C[C@H]1NC(=O)[C@H](CCN)NC(=O)[C@H](CCCNC(N)=O)NC(=O)[C@H](Cc2ccc(-c3ccccc3)cc2)NC(=O)[C@H](C(C)C)NC(=O)[C@H](Cc2c[nH]c3ccccc23)NC(=O)[C@H](CC(=O)O)NC(=O)[C@H](Cc2ccc(OCC(=O)O)cc2)NC(=O)[C@H](CCCNC(=N)N)NC(=O)CSC[C@@H](C(=O)N[C@@H](CCCN)C(=O)NCCCCCCCCCCC(=O)O)NC(=O)[C@@H](CCC(N)=O)NC(=O)[C@H](C(C)C)NC(=O)[C@H](CC2CCCCC2)NC(=O)[C@H](CCN)NC1=O [Compound 2816] ({CH2CO}-RY(Carboxymethyl)DWV[Bip][Cit][Dab][dL][Dab][Cha]V[dQ]C[Orn][Aun]-OH; thioether N-14)
5 | 7.90 | Cc1cccc(C[C@@H]2NC(=O)[C@H](CC(=O)O)NC(=O)[C@H](Cc3c[nH]cn3)NC(=O)[C@H](CCCNC(=N)N)NC(=O)CSC[C@@H](C(=O)NCCOCCOCC(=O)N[C@@H](CCN)C(=O)NCCCCCCCCCCC(=O)O)NC(=O)[C@H](CO)NC(=O)[C@H](C(C)C)NC(=O)[C@H](CC3CCCCC3)NC(=O)[C@H](CCN)NC(=O)[C@@H](CC(C)C)NC(=O)[C@H](CCCN)NC(=O)[C@H](C(C)C)NC(=O)[C@H](Cc3ccc(-c4ccccc4)cc3)NC(=O)[C@H](C(C)C)NC2=O)c1 [Compound 3295] ({CH2CO}-RHD[Phe(3-Me)]V[Bip]V[Orn][dL][Dab][Cha]VSC[AEEA][Dab][Aun]-OH; thioether N-14)
6 | 8.59 | Cc1cccc(C[C@@H]2NC(=O)[C@H](CC(=O)O)NC(=O)[C@H](Cc3ccc(OCC(=O)O)cc3)NC(=O)[C@H]([C@H](C)N)NC(=O)CSC[C@@H](C(=O)N[C@@H](CCN)C(=O)NCCCCCCCCCCC(=O)O)NC(=O)[C@H](CO)NC(=O)[C@H](C(C)(C)O)NC(=O)[C@H](CC3CCCCC3)NC(=O)[C@H](CCN)NC(=O)[C@@H](CC(C)C)NC(=O)[C@H](CCCN)NC(=O)[C@H](Cc3ccc(OCC(=O)O)cc3)NC(=O)[C@H](Cc3ccc(-c4ccccc4)cc3)NC(=O)[C@H](Cc3ccc(OCC(=O)O)cc3)NC2=O)c1 [Compound 2237] ({CH2CO}-[Abu(3S-NH2)]Y(Carboxymethyl)D[Phe(3-Me)]Y(Carboxymethyl)[Bip]Y(Carboxymethyl)[Orn][dL][Dab][Cha][Val(3-OH)]SC[Dab][Aun]-OH; thioether N-14)
7 | 7.95 | CC(C)C[C@H]1NC(=O)[C@H](CCCN)NC(=O)[C@H](C(C)C)NC(=O)[C@H](Cc2ccc(-c3ccccc3)cc2)NC(=O)[C@H](C(C)C)NC(=O)[C@H](Cc2c[nH]c3ccccc23)NC(=O)[C@H](CC(=O)O)NC(=O)[C@H](Cc2ccc(OCC(=O)O)cc2)NC(=O)[C@H](C(C)O)NC(=O)CSC[C@@H](C(=O)N[C@@H](C)C(=O)NCCOCCOCC(=O)N[C@@H](CCCN)C(=O)NCCCCCCCCCCC(=O)O)NC(=O)[C@H](C(C)O)NC(=O)[C@H](C(C)C)NC(=O)[C@H](CC2CCCCC2)NC(=O)[C@H](Cc2c[nH]cn2)NC1=O (stereo partly drawn) [Compound 3033] ({CH2CO}-[Thr(3ξ)]Y(Carboxymethyl)DWV[Bip]V[Orn][dL]H[Cha]V[Thr(3ξ)]CA[AEEA][Orn][Aun]-OH; thioether N-14)
8 | 7.79 | Cc1cccc(C[C@@H]2NC(=O)[C@H](CC(=O)O)NC(=O)[C@H](Cc3ccc(OCC(=O)O)cc3)NC(=O)[C@H](C(C)O)NC(=O)CSC[C@@H](C(=O)N[C@@H](CCN)C(=O)NCCCCCCCCCCC(=O)O)NC(=O)[C@H](C(C)O)NC(=O)[C@H](C(C)C)NC(=O)[C@H](CC3CCCCC3)NC(=O)[C@H](CCN)NC(=O)[C@@H](CC(C)C)NC(=O)[C@H](CCCN)NC(=O)[C@H](Cc3ccc(OCC(=O)O)cc3)NC(=O)[C@H](Cc3ccc(-c4ccccc4)cc3)NC(=O)[C@H](CCCNC(N)=O)NC2=O)c1 (stereo partly drawn) [Compound 3485] ({CH2CO}-[Thr(3ξ)]Y(Carboxymethyl)D[Phe(3-Me)][Cit][Bip]Y(Carboxymethyl)[Orn][dL][Dab][Cha]V[Thr(3ξ)]C[Dab][Aun]-OH; thioether N-14)
9 | 7.59 | Cc1cccc(C[C@@H]2NC(=O)[C@H](CC(=O)O)NC(=O)[C@H](Cc3ccc(OCC(=O)O)cc3)NC(=O)[C@H](CCCNC(=N)N)NC(=O)CSC[C@@H](C(=O)N[C@@H](CCCCN)C(=O)NCCCCCCCCCCC(=O)O)NC(=O)[C@H](C(C)O)NC(=O)[C@H](C(C)C)NC(=O)[C@H](CC3CCCCC3)NC(=O)[C@H](CCN)NC(=O)[C@@H](CC(C)C)NC(=O)[C@H](CCCN)NC(=O)[C@H](CCCNC(N)=O)NC(=O)[C@H](Cc3ccc(-c4ccccc4)cc3)NC(=O)[C@H](C(C)C)NC2=O)c1 (stereo partly drawn) [Compound 3468] ({CH2CO}-RY(Carboxymethyl)D[Phe(3-Me)]V[Bip][Cit][Orn][dL][Dab][Cha]V[Thr(3ξ)]CK[Aun]-OH; thioether N-14)
